Source: US12583884B2, “3beta-(benzyloxy)-17alpha-methyl-pregn-5-en-20-one for use in the treatment of cognitive disorders” (AELIS FARMA, priority 2018, dated 2026)

How the values were obtained:
[1] = biological target: T1, wild-type human CB1 receptor (Homo sapiens, UniProt P21554); assay: THC-induced inhibition of cellular respiration in HEK-293-hCB1-WT; assay type: cell-based; conditions: THC 1 μM
T1 construct: expressed in transfected cells; host or cells: HEK-293 (transient)
Method: In a first study (FIG. 5A), HEK-293 cells were transiently transfected with the wild-type hCB1-expressing plasmid (HEK-293-hCB1-WT). […] After 15 min of incubation, THC (0; 1 μM, dissolved in EtOH, 0.0034%) was added in the culture dishes for 30 minutes.
(§1) Cellular respiration was measured in a calibrated oxygraph equipped with a Clark electrode. Oxygen consumption (OC) rate was used to measure cellular respiration.

[2] = biological target: T2, mutant human CB1 receptor (hCB1p.E1.49G) (Homo sapiens, UniProt P21554, E133G); assay: THC-induced inhibition of cellular respiration in HEK-293-hCB1-Mut; assay type: cell-based; conditions: 100 nM, THC 1 μM
T2 construct: expressed in transfected cells; host or cells: HEK-293 (transient)
T2 sequence (P21554 whole entry E133G): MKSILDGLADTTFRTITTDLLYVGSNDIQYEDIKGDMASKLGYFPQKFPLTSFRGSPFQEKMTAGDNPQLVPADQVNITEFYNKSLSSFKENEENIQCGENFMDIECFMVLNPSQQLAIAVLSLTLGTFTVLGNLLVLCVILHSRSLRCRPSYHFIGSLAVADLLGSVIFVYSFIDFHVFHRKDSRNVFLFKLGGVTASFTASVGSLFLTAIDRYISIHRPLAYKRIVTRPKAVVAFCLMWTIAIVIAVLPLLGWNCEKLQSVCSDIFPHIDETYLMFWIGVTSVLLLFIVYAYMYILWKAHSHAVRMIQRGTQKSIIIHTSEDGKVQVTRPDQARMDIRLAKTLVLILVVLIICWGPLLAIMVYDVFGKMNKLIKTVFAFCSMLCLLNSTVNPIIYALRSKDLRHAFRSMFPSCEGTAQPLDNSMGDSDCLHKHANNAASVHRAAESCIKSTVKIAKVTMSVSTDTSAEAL
Method: In a second study (FIG. 5B), HEK-293 cells were transiently transfected either with the wild-type hCB1-expressing plasmid (HEK-293-hCB1-WT) or with the mutant hCB1p.E1.49G-expressing plasmid (HEK-293-hCB1-Mut). In this mutant the glutamate amino acid at position 1.49 was substituted by a glycine. […] After 15 min of incubation, THC (0; 1 μM, dissolved in EtOH, 0.0034%) was added in the culture dishes for 30 minutes.
as §1

Ts65Dn mice [3] = assay: Declarative/relational memory (radial maze flexibility test), Down syndrome model; assay type: in vivo, mouse; conditions: 0.6 μg/ml in drinking water
Method: The relational memory task was performed using 8-arm radial mazes. The diameter of the central platform was 30 cm and the arms were 55 cm length; 10 cm width and 100 cm height from the floor. Each arm was equipped with a retractable door at its entrance and with a food-pellet delivering system at its end. Each maze was placed in a room containing visual cues on the walls to enable spatial discrimination. There was no intra-maze cue. Each maze was fully automated by videotracking (IMETRONIC Pessac—France). This allowed to automatically control the doors of the arms (opening/closure) and food delivery according to the location of the mouse.
Food-restricted mice (85% of their original body weight all throughout the study) were first submitted to 3 sessions of habituation to the mazes. During each habituation session, the mouse freely explored the maze until it visited each of the 8 arms, or 30 min elapsed. At the beginning of each habituation session, the mouse was placed in the central platform with all the arms closed. […]
The number of correct responses was measured at each session. […]
At the end of the behavioral study, mice were sacrificed, blood and brain samples were collected. 3Bn17MeP was quantified by LC/MS-MS chromatography in both plasma and brain.

Ts65Dn mice [4] = assay: Working memory (radial maze), Down syndrome model; assay type: in vivo, mouse; conditions: 0.06 μg/ml in drinking water
Method: The working memory task was performed using 8-arm radial mazes described in Example 3a. Food restriction and habituation procedure were performed as described in Example 3a. The working memory procedure began 24 h after the last habituation session. Each mouse was submitted to 15 daily learning sessions (5 blocks of 3 days) made of 23 trials each. Six arms out of eight were used during the working memory test (3 pairs (A, B or C) of adjacent arms).
At the beginning of each daily session, the mouse was placed at the center of the maze with no access to the arms. The doors of the first pair of arms then opened giving access to both arms of the pair. Once the mouse had visited one of the arms and goes back to the central platform, the door closed, and the animal was confined in the central platform for 10 sec (inter-trial interval, ITI) before two doors opened again giving access to a pair of arms. Once the animal had visited one of the arms and returns to the central platform the doors close again for 10 sec before the next trial. Within each session, the mouse was submitted to repeated and successive presentations of the 3 pairs of arms one at a time. At the first presentation of each arm pair the food reward was present in both arms. […]

T1 sequence (P21554 whole entry): as the sequence (P21554 whole entry E133G) above, with G133E counted along it

## CC(=O)[C@@]1(C)CC[C@H]2[C@@H]3CC=C4C[C@@H](OCc5ccccc5)CC[C@]4(C)[C@H]3CC[C@@]21C [3Bn17MeP, 3β-benzyloxy, 17α-methyl-pregn-5-en-20-one]
[1]; HEK-293-hCB1
  ID100: 50 nM
[1]; HEK-293-hCB1, maximal inhibition of THC effect
  % Inhibition: 100%
[1]; tested 1, 2.5, 5, 50 and 100 nM, Tukey's test
  Concentration with significant block of THC-induced inhibition of cellular respiration: ≥ 2.5 nM
[2]
  Effect on THC-induced decrease in cellular respiration: insensitive
Ts65Dn mice [3]
  Choice accuracy in the flexibility test (declarative/relational memory): enhanced choice accuracy of Ts65Dn mice that reached the level of WT
Ts65Dn mice [4]
  Correct responses (working memory): increased correct responses in Ts65Dn as compared to vehicle mice that reached the level of WT
